Data published in US20220402862A1 (Intellia Therapeutics, Inc., priority 2019, published 2022).

Test system: mouse B2M gene
Assay: In vivo editing in mouse spleen, G650 sgRNA, % indel by NGS
Design: species or system CD-1 female mice
Details: experiment 108
Protocol: In brief, to quantitatively determine the efficiency of editing at the target location in the genome, genomic DNA was isolated and deep sequencing was utilized to identify the presence of insertions and deletions introduced by gene editing.
PCR primers were designed around the target site (e.g., within B2M), and the genomic area of interest was amplified. Additional PCR was performed according to the manufacturer's protocols (Illumina) to add the necessary chemistry for sequencing. The amplicons were sequenced on an Illumina MiSeq instrument. The reads were aligned to the mouse or rat reference genome (e.g., GRCm38) after eliminating those having low quality scores. The resulting files containing the reads were mapped to the reference genome (BAM files), where reads that overlapped the target region of interest were selected and the number of wild type reads versus the number of reads which contain an insertion, substitution, or deletion was calculated.
The editing percentage (e.g., the “indel efficiency” or “percent indels”) was defined as the total number of sequence reads with insertions or deletions over the total number of sequence reads, including wild type.
The in vivo delivery to liver, spleen, and bone marrow was assessed by measuring editing efficiency for materials delivered with formulations including various amine lipid compounds. […] LNPs were formulated at a 1:2 w/w ratio of sgRNA to Cas9 mRNA and at an N/P ratio of about 6. Molar concentrations of lipids in the lipid component of the LNPs are used at mol % amine lipid/DSPC/cholesterol/PEG-2k-DMG of 50/9/38/3. The final LNPs compositions were characterized and analyzed as described in Example 120. Analysis of average particle size, polydispersity (PDI), total RNA content and encapsulation efficiency of RNA are shown in Table 8.
CD-1 female mice were dosed i.v. at 0.1, 0.3, or 1 mg/kg and assessed for editing in liver, spleen, and bone marrow.

| SMILES | % Editing in Spleen (G650, i.v. dose 0.1 mg/kg) [%] | % Editing in Spleen (G650, i.v. dose 0.3 mg/kg) [%] | % Editing in Spleen (G650, i.v. dose 1 mg/kg) [%] |
| --- | --- | --- | --- |
| CCCCC/C=C\C/C=C\CCCCCCCC(=O)OCC(COC(=O)CCC(OCCCCCCCC)OCCCCCCCC)COC(=O)OCCCN(CC)CC (stereo not drawn) [Compound 1, 3-((4,4-bis(octyloxy)butanoyl)oxy)-2-((((3-(diethylamino)propoxy)carbonyl)oxy)methyl)propyl (9Z,12Z)-octadeca-9,12-dienoate, reference compound] | 0.62 | 2.2 | 6.26 |
| CCCCC/C=C\C/C=C\CCCCCCCC(=O)OCC(COC(=O)CC12CC3CC(CC(C3)C1)C2)COC(=O)OCCCN(CC)CC (stereo not drawn) [Compound 107, 3-(2-((3 r,5 r, 7r)-adamantan-1-yl)acetoxy)-2-((((3-(diethylamino)propoxy)carbonyl)oxy)methyl)propyl (9Z,12Z)-octadeca-9,12-dienoate] | 0.08 | 0.12 | 0.3 |
